The supplement of paper PMC10307832

Key:
Experiment in all cases: relative viability (nuclei count vs DMSO), 5 days (fraction); higher = more cells survive
[1] = compound: CC1=CC(=NN1)NC2=CC(=NC(=N2)/C=C/C3=CC=CC=C3)N4CCN(CC4)C + O=C(c1cc(Cc2n[nH]c(=O)c3ccccc23)ccc1F)N1CCN(C(=O)C2CC2)CC1 [Olaparib] (partner 8 µM)
Outline: (§1)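 Lung cancer cell lines in 1536-well plates got either a single drug or a fixed anchor-drug dose together with five library-drug doses (not always all listed) in √10 steps, by pin tool, on the day after seeding. Nuclei were counted after 5 days, and relative viability is the treated-to-vehicle ratio of nuclei counts. Values are medians of duplicate plates.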

Obatoclax + Navitoclax = compound: COC1=CC(c2cc3ccccc3[nH]2)=N/C1=C\c1[nH]c(C)cc1C [Obatoclax] + CC1(C)CCC(c2ccc(Cl)cc2)=C(CN2CCN(c3ccc(C(=O)NS(=O)(=O)c4ccc(N[C@H](CCN5CCOCC5)CSc5ccccc5)c(S(=O)(=O)C(F)(F)F)c4)cc3)CC2)C1 [Navitoclax] (partner 0.5 µM)
Outline: as §1

[2] = compound: CC1=CC(=NN1)NC2=CC(=NC(=N2)/C=C/C3=CC=CC=C3)N4CCN(CC4)C + N=C(N)NC(=N)NCCc1ccccc1 [Phenformin] (partner 250 µM)
Outline: as §1

Bortezomib + OSI-027 = compound: CC(C)C[C@H](NC(=O)[C@H](Cc1ccccc1)NC(=O)c1cnccn1)B(O)O [Bortezomib] + COc1cccc2cc(-c3nc([C@H]4CC[C@H](C(=O)O)CC4)n4ncnc(N)c34)[nH]c12 [OSI-027] (partner 0.5 µM)
Outline: as §1

Row | Cell Line | relative viability ([1]; first compound 0.08 µM) | relative viability ([1]; first compound 0.253 µM) | relative viability ([1]; first compound 0.8 µM) | relative viability ([1]; first compound 2.53 µM) | relative viability ([1]; first compound 8 µM) | relative viability (Obatoclax + Navitoclax; first compound 0.01 µM) | relative viability (Obatoclax + Navitoclax; first compound 0.03162 µM) | relative viability (Obatoclax + Navitoclax; first compound 0.1 µM) | relative viability (Obatoclax + Navitoclax; first compound 0.3162 µM) | relative viability (Obatoclax + Navitoclax; first compound 1 µM) | relative viability ([2]; first compound 0.08 µM) | relative viability ([2]; first compound 0.253 µM) | relative viability ([2]; first compound 0.8 µM) | relative viability ([2]; first compound 2.53 µM) | relative viability ([2]; first compound 8 µM) | relative viability (Bortezomib + OSI-027; first compound 0.0002 µM) | relative viability (Bortezomib + OSI-027; first compound 0.000632 µM) | relative viability (Bortezomib + OSI-027; first compound 0.002 µM) | relative viability (Bortezomib + OSI-027; first compound 0.006325 µM) | relative viability (Bortezomib + OSI-027; first compound 0.02 µM)
1 | NCI-H2170 | 0.512 | 0.65 | 0.577 | 0.263 | 0.102 | 0.618 | 0.554 | 0.606 | 0.609 | 0.577 | 0.44 | 0.388 | 0.382 | 0.32 | 0.204 | 0.688 | 0.463 | 0.69 | 0.566 | 0.182
2 | NCI-H2228 | 0.699 | 0.727 | 0.374 | 0.316 | 0.0565 | 1.16 | 0.984 | 0.677 | 0.919 | 0.944 | 0.286 | 0.284 | 0.238 | 0.066 | 0.0616 | 0.51 | 0.674 | 0.294 | 0.0867 | 0.115
3 | NCI-H2347 | 0.553 | 0.665 | 0.578 | 0.565 | 0.406 | 0.724 | 0.781 | 0.698 | 0.602 | 0.877 | 0.402 | 0.347 | 0.435 | 0.38 | 0.208 | 0.559 | 0.367 | 0.291 | 0.182 | 0.194
4 | NCI-H2405 | 0.842 | 0.937 | 0.93 | 0.753 | 0.183 | 0.82 | 1.06 |  | 0.862 | 0.857 | 0.377 | 0.307 | 0.422 | 0.244 | 0.1 | 0.635 | 0.589 | 0.661 | 0.319 | 0.205
5 | NCI-H3122 | 0.568 | 0.722 | 0.654 | 0.62 | 0.474 | 1.02 | 1.01 | 1.04 | 1.04 | 1.02 | 0.385 | 0.384 | 0.415 | 0.285 | 0.138 | 0.993 | 1.03 | 0.935 | 0.206 | 0.133
6 | PC-3 [JPC-3] | 1.16 | 1.31 | 1.22 | 1.09 | 0.615 | 0.853 | 0.682 | 0.801 | 0.796 | 0.668 | 0.456 | 0.475 | 0.498 | 0.472 | 0.437 | 0.807 | 0.824 | 0.806 | 0.446 | 0.122
7 | PC-14 | 0.285 | 0.289 | 0.275 | 0.0326 | 0.0264 | 0.968 | 1.07 | 0.962 | 0.847 | 0.128 | 0.628 | 0.618 | 0.567 | 0.166 | 0.064 |  | 0.765 | 0.714 | 0.033 | 0.0438
8 | RERF-LC-KJ | 0.982 | 0.88 | 0.882 | 0.243 | 0.201 | 1.04 | 0.845 | 0.729 | 0.875 | 0.319 | 0.417 | 0.457 | 0.372 | 0.256 | 0.245 | 0.581 | 0.547 | 0.555 | 0.216 | 0.24
9 | SK-LU-1 | 0.405 | 0.515 | 0.423 | 0.273 | 0.125 | 0.753 | 0.871 | 0.424 | 0.222 | 0.216 | 0.58 | 0.511 | 0.475 | 0.109 | 0.0429 | 0.336 | 0.286 | 0.319 | 0.125 | 0.122
10 | SK-MES-1 | 0.667 | 0.776 | 0.566 | 0.126 | 0.134 | 1.28 | 1.16 | 1.22 | 1.03 | 0.64 | 0.664 | 0.682 | 0.601 | 0.147 | 0.124 | 0.64 | 0.591 | 0.47 | 0.14 | 0.128
11 | SW 1573 | 0.442 | 0.413 | 0.377 | 0.111 | 0.0633 | 1.04 | 0.788 | 0.989 | 0.937 | 0.267 | 0.412 | 0.337 | 0.319 | 0.152 | 0.0862 | 0.658 | 0.665 | 0.234 | 0.0635 | 0.0625
12 | UMC-11 | 0.361 | 0.39 | 0.395 | 0.0656 | 0.167 | 0.315 | 0.311 | 0.316 | 0.299 | 0.111 | 0.348 | 0.289 | 0.279 | 0.137 | 0.131 | 0.461 | 0.472 | 0.493 | 0.325 | 0.148
